Measured values taken from patent publication US11214803B2, “Modulators of YAP1 expression” (Ionis Pharmaceuticals, Inc., priority 2019, dated 2022).
Strand notation (5' to 3'): a small letter for the sugar, then the base; units joined by * are phosphorothioate-linked, units joined directly phosphodiester-linked; [ ] holds rarer units or linkages, { } end groups; capitals alone tell only the bases. k = constrained ethyl (cEt); [5mC] = 5-methylcytosine; d = 2'-deoxy (DNA)

Tested on: Yap1 mRNA
Assay: Antisense inhibition of human Yap1 in A-431 cells by cEt gapmers, single dose (Example 2, RTS4814)
Format: cell-based
Method in brief: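 Each 16-nucleoside gapmer (ten-deoxy gap, three-cEt wings) is tested once at 2,000 nM in A-431 cells by free uptake. Yap1 mRNA after about 48 hours is measured by quantitative RT-PCR and expressed relative to untreated control.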

[1] = Table 21, Yap1 mRNA, percent of untreated control, 3-10-3 cEt gapmers targeting SEQ ID NO.: 1 and 2
[2] = Table 6, A-431 cells, 5,000 cells per well, free uptake, 2,000 nM modified oligonucleotide, approx. 48 hours, RTS4814, normalized to RIBOGREEN, Yap1 mRNA relative to untreated control cells
[3] = Table 25, Yap1 mRNA as percent of untreated control, 3-10-3 cEt gapmers targeting SEQ ID NO.: 1, and 2
[4] = Table 5, A-431 cells, 5,000 cells per well, free uptake, 2,000 nM modified oligonucleotide, approx. 48 hours, RTS4814, normalized to RIBOGREEN, Yap1 mRNA relative to untreated control cells
[5] = Yap1 mRNA as percent of untreated control, A-431 cells, 3-10-3 cEt gapmers targeting SEQ ID NO.: 1, and 2, Table 30
[6] = A-431 cells, 5,000 cells per well, free uptake, 2,000 nM modified oligonucleotide, approx. 48 hours, RTS4814, normalized to RIBOGREEN, Table 4, asterisk (*) = targets amplicon region of primer probe set

Substance: 1076295 (kG*kT*kA*dT*dA*dT*dT*dA*dG*dT*dG*d[5mC]*d[5mC]*k[5mC]*k[5mC]*k[5mC]; antisense) [Compound 1076295]
- YAP1 (% UTC) [1]: 2 % UTC

Substance: 1074151 (antisense kG*kG*kG*d[5mC]*d[5mC]*dG*dA*dG*dG*dT*dG*dG*dA*kG*kA*kA) [Compound 1074151]
- YAP1 (% UTC) [1]: 81 % UTC

Substance: 716357 (k[5mC]*kG*k[5mC]*d[5mC]*d[5mC]*d[5mC]*dG*dG*d[5mC]*dT*d[5mC]*d[5mC]*dA*k[5mC]*kG*kG; antisense) [Compound 716357]
- YAP1 (% UTC) [2]: 127 % UTC

Substance: 716480 (kG*k[5mC]*kA*dA*dG*dT*d[5mC]*dT*dT*dG*dT*dA*dA*kG*kT*kA; antisense) [Compound 716480]
- YAP1 (% UTC) [2]: 18 % UTC

Substance: 1074155 (antisense k[5mC]*k[5mC]*k[5mC]*dG*dG*d[5mC]*dT*d[5mC]*d[5mC]*dA*d[5mC]*dG*dG*kG*k[5mC]*k[5mC]) [Compound 1074155]
- YAP1 (% UTC) [3]: 87 % UTC

Substance: 1075368 (kG*kA*kG*dA*dA*dT*dA*dA*dG*d[5mC]*dA*dA*dT*k[5mC]*kA*kG; antisense) [Compound 1075368]
- YAP1 (% UTC) (Table 22, Yap1 mRNA as percent of untreated control, 3-10-3 cEt gapmers, single dose): 24 % UTC

Substance: 716536 (antisense kA*kA*kG*dT*dA*dG*dA*dT*d[5mC]*dT*dA*dA*dG*kA*kA*kG) [Compound 716536]
- YAP1 (% UTC) [4]: 94 % UTC

Substance: 1075248 (kG*kT*kA*d[5mC]*dA*dA*dA*dA*dA*dG*d[5mC]*dG*dG*kT*k[5mC]*kG; antisense) [compound 1075248]
- YAP1 (% UTC) [5]: 64 % UTC

Substance: 1074247 (antisense kA*kT*k[5mC]*dG*dA*dT*dG*dT*dG*dA*dT*dT*dT*kA*kA*kG) [Compound 1074247]
- YAP1 (% UTC) [1]: 43 % UTC

Substance: 716539 (antisense kA*kA*kT*dA*dG*dT*dG*d[5mC]*dT*dT*dT*dG*dG*kA*kA*kG) [Compound 716539]
- YAP1 (% UTC) [4]: 59 % UTC

Substance: 1074897 (antisense kG*kG*k[5mC]*dA*dA*dA*dG*dT*dT*d[5mC]*d[5mC]*dT*dA*kT*kG*k[5mC]) [compound 1074897]
- YAP1 (% UTC) (Yap1 mRNA as percent of untreated control, A-431 cells, 3-10-3 cEt gapmers targeting SEQ ID NO.: 1, and 2, Table 31): 76 % UTC

Substance: 1074928 (antisense kA*kT*kA*d[5mC]*dA*dA*d[5mC]*dA*dG*dG*d[5mC]*d[5mC]*dT*kG*k[5mC]*kA) [compound 1074928]
- YAP1 (% UTC) [5]: 83 % UTC

Substance: 716476 (kG*kA*kA*d[5mC]*dT*dA*d[5mC]*dA*dA*dA*d[5mC]*dT*dA*kG*kA*kA; antisense) [Compound 716476]
- YAP1 (% UTC) [4]: 91 % UTC

Substance: 1074320 (antisense kG*kG*k[5mC]*dT*dA*dA*d[5mC]*dT*d[5mC]*d[5mC]*dT*dG*dA*k[5mC]*kA*kT) [compound 1074320]
- YAP1 (% UTC) [5]: 80 % UTC

Substance: 1076036 (k[5mC]*kG*kT*dA*dA*dT*dT*dA*dG*dA*dA*dA*d[5mC]*kT*kT*kG; antisense) [Compound 1076036]
- YAP1 (% UTC) (Table 18, A-431 cells, 5,000 cells per well, free uptake, 2,000 nM modified oligonucleotide, approx. 48 hours, RTS4814, normalized to RIBOGREEN, Yap1 mRNA as percent of untreated control): 19 % UTC

Substance: 716502 (k[5mC]*kA*k[5mC]*dA*dG*dT*dG*dA*dT*dT*dG*d[5mC]*dA*kT*kT*kT; antisense) [Compound 716502]
- YAP1 (% UTC) [6]: 11 % UTC

Substance: 1074640 (antisense kG*k[5mC]*k[5mC]*dA*dA*dA*dA*dT*dA*d[5mC]*dT*dT*dA*kG*kA*kT) [compound 1074640]
- YAP1 (% UTC) [5]: 26 % UTC

Substance: 1075497 (kA*kT*kT*dA*dT*dA*dT*dA*dA*dT*dG*d[5mC]*dA*kG*kG*k[5mC]; antisense) [Compound 1075497]
- YAP1 (% UTC) (Table 23, Yap1 mRNA as percent of untreated control, 3-10-3 cEt gapmers, single dose): 14 % UTC

Substance: 1075795 (kG*kT*kA*dA*dT*dT*dA*dT*dA*dT*dA*d[5mC]*d[5mC]*k[5mC]*kA*k[5mC]; antisense) [compound 1075795]
- YAP1 (% UTC) (Table 33, Yap1 mRNA, percent of untreated control, 3-10-3 cEt gapmers targeting SEQ ID NO.: 1, and 2): 66 % UTC

Substance: 716537 (antisense kA*kT*kG*dT*dG*d[5mC]*dT*d[5mC]*d[5mC]*dA*dT*d[5mC]*dA*kA*k[5mC]*k[5mC]) [Compound 716537]
- YAP1 (% UTC) [2]: 36 % UTC

Substance: 1076395 (kG*kT*kA*dA*d[5mC]*dT*dA*dA*d[5mC]*d[5mC]*dT*dA*dA*kG*kG*kA; antisense) [Compound 1076395]
- YAP1 (% UTC) [3]: 34 % UTC

Substance: 716442 (kG*k[5mC]*kA*d[5mC]*dT*dA*dG*dG*dA*dG*dG*dA*dA*kA*kA*kG; antisense) [Compound 716442]
- YAP1 (% UTC) [6]: 63 % UTC
